From patent US11220504B2, “Pyrrolo[3,2-d] pyrimidine derivatives for the treatment of viral infections and other diseases” (JANSSEN SCIENCES IRELAND UNLIMITED COMPANY, priority 2012, dated 2022)

Tests used:
[1] = target: T1, human TLR7 (Homo sapiens, UniProt Q9NYK1); assay: TLR7 cellular reporter assay (HEK293, NFκB-luc); format: cell-based; settings: HEK293 cells transfected with CMV-TLR7 and NFκB-luc, 6 hours incubation; lowest effective concentration
T1 construct: expressed in transfected cells; host or cells: HEK293 cells, transient transfection with CMV-TLR7 plasmid and NFκB-luc plasmid
T1 sequence (Q9NYK1 27-1049): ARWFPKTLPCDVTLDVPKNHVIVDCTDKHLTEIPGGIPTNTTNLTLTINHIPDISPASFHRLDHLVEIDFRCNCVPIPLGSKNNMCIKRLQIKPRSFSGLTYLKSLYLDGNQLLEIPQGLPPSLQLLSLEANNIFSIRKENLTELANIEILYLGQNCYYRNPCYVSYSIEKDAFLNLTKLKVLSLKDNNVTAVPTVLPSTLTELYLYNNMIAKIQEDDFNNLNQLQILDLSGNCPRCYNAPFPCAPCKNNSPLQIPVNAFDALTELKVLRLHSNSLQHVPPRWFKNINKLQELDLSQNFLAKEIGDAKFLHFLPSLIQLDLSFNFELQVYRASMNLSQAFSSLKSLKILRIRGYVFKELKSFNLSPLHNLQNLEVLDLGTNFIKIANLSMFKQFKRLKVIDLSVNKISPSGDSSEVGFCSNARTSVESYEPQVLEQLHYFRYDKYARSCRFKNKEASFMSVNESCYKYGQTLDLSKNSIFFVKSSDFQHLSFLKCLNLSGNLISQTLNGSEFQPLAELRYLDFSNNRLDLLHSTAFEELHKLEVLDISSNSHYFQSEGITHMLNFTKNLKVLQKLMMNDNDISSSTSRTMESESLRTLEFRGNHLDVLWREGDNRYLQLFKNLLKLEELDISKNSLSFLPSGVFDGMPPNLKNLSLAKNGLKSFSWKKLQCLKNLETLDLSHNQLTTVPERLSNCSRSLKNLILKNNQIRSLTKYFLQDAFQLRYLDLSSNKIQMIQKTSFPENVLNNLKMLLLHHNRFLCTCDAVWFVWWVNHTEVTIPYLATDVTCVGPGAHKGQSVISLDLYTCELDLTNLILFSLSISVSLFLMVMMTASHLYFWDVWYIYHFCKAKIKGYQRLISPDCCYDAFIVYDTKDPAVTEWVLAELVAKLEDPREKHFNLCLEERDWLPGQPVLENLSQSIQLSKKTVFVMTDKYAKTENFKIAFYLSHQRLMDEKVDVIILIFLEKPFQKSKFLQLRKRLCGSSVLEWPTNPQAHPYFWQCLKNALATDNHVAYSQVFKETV
In short: (§1)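 HEK293 cells transiently transfected with receptor expression vector plus NFκB-luciferase reporter, exposed to compound (added in 4% DMSO) for 6 hours at 37° C, 5% CO2. Luciferase activity measured by luminescence; dose-response curves from quadruplicate measurements.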

[2] = target: T2, human TLR8 (Homo sapiens, UniProt Q9NR97); assay: TLR8 cellular reporter assay (HEK293, NFκB-luc); format: cell-based; settings: HEK293 cells transfected with CMV-TLR8 and NFκB-luc, 6 hours incubation; lowest effective concentration
T2 construct: expressed in transfected cells; host or cells: HEK293 cells, transient transfection with TLR8 plasmid and NFκB-luc plasmid
T2 sequence (Q9NR97 27-1041): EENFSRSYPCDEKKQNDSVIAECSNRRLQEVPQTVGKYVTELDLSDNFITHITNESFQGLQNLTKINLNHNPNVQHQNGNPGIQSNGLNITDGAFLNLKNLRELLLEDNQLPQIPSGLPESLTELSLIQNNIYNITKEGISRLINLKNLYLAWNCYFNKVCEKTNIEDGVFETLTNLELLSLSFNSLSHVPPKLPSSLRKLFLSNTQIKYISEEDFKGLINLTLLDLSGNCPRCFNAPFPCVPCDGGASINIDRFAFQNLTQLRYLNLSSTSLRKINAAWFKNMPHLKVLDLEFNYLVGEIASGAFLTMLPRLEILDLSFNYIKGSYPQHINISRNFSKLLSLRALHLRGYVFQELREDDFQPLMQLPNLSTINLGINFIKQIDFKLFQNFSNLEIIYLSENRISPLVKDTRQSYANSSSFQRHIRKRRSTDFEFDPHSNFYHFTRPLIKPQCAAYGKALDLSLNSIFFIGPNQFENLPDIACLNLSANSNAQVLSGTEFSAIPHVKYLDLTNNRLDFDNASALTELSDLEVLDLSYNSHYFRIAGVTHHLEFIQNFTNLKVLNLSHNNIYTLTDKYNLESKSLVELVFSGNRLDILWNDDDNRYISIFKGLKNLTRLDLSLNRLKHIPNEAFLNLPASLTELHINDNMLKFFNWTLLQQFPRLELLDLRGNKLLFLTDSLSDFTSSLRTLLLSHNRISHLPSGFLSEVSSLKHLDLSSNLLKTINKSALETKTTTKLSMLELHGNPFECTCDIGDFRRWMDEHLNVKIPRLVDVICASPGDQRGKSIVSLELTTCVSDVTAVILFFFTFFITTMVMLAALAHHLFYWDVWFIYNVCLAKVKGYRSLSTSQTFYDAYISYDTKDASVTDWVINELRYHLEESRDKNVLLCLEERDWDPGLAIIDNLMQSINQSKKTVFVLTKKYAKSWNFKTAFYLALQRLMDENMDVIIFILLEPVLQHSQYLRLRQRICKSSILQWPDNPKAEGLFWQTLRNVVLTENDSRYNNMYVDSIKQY
In short: as §1

[3] = tested on: interferon-stimulated responsive elements (ISRE); assay: Activation of ISRE promoter elements by conditioned media from PBMC (HEK-ISREluc); format: cell-based, human; settings: Homo sapiens; conditioned media from PBMC transferred to HEK-ISREluc cells, 24 hours; lowest effective concentration; read-out: PBMC LEC
In short: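 Human PBMCs (≥2 donors, RPMI + 10% human AB serum, 2×10^5 cells/well) incubated overnight with compound; supernatant transferred to HEK293 cells stably carrying pISRE-Luc for 24 h, then luciferase read. LEC = compound concentration on PBMCs giving luciferase signal at least two-fold above assay SD; recombinant IFN-α-2a standard.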

Row | Compound | TLR7 LEC [1] [µM] | TLR8 LEC [2] [µM] | minimal effective concentration [3] [µM]
1 | CCCC(C)Nc1nc(N)nc2ccn(Cc3ccccc3F)c12 (stereo not drawn) [Compound 74] | 0.10 | >25 | 0.04
2 | CCCC(C)Nc1nc(N)nc2ccn(Cc3ccc(OC)cc3)c12 (stereo not drawn) [Compound 75] | 0.04 | >25 | 0.04
3 | CCCC[C@@H](CCO)Nc1nc(N)nc2ccn(Cc3ccccc3F)c12 [Compound 76] | 0.01 | 4.09 | 0.007
4 | CCCC[C@@H](CCO)Nc1nc(N)nc2ccn(Cc3ccc(OC)cc3)c12 [Compound 77] | 0.008 | 2.62 | 0.002
5 | CCCC[C@@H](CCO)Nc1nc(N)nc2ccn(Cc3ccccc3OC)c12 [Compound 78] | 0.0004 | 0.5577 | < 0.0004
6 | CCCC(C)Nc1nc(N)nc2ccn(Cc3ccccc3OC)c12 (stereo not drawn) [Compound 79] | 0.004 | 0.94 | 0.001
7 | CCC[C@@H](CCO)Nc1nc(N)nc2ccn(Cc3ccccc3OC)c12 [Compound 80] | <0.0006 | 0.689 | < 0.0004
8 | CCC[C@@H](CCO)Nc1nc(N)nc2ccn(Cc3ccccc3F)c12 [Compound 81] | 0.01 | 22.02 | 0.002
9 | CCC[C@@H](CCO)Nc1nc(N)nc2ccn(CC3CCC3)c12 [Compound 82] | 0.07 | 0.57 | 0.01
10 | CCCCn1ccc2nc(N)nc(NCc3ccccc3)c21 [Compound 83] | 1.57 | >25 | 2.3
11 | CCCC[C@@H](CCO)Nc1nc(N)nc2ccn(CC3CCC3)c12 [Compound 84] | 0.04 | 1.14 | 0.01
12 | CCC[C@@H](CCO)Nc1nc(N)nc2ccn(Cc3cscn3)c12 [Compound 85] | 0.03 | 10.14 | 0.002
13 | CCCCNc1nc(N)nc2cc(F)n(Cc3ccccc3)c12 [Compound 86] | 1.63 | >25 | 0.47
14 | CCC[C@@H](CCO)Nc1nc(N)nc2ccn(CC3CCCCC3)c12 [Compound 87] | 0.01 | >25 | 0.008
15 | CCCC[C@@H](CCO)Nc1nc(N)nc2ccn(Cc3cscn3)c12 [Compound 88] | 0.01 | 2.46 | 0.0006
16 | Cc1cccc(Cn2ccc3nc(N)nc(NCc4cc(C)on4)c32)n1 [Compound 90] | 0.03 | >25 | 0.01
17 | CCCC[C@@H](CCO)Nc1nc(N)nc2ccn(CC3CCCO3)c12 (stereo partly drawn) [Compound 91] | 0.05 | 2.17 | 0.02

Row | Compound | TLR7 LEC [1] [µM] | TLR8 LEC [2] [µM] | minimal effective concentration [3] [µM]
18 | CCC[C@@H](CCO)Nc1nc(N)nc2ccn(CC3CCCO3)c12 (stereo partly drawn) [Compound 92] | 0.10 | 4.46 | 0.02
19 | CCCCNc1nc(N)nc2c(F)cn(Cc3ccccc3)c12 [Compound 93] | 0.26 | >25 | 0.12
20 | CCC[C@@H](CCO)Nc1nc(N)nc2c(F)cn(Cc3ccccc3)c12 [Compound 94] | 0.01 | >25 | 0.01
21 | CCCC[C@@H](CCO)Nc1nc(N)nc2c(F)cn(Cc3ccccc3)c12 [Compound 95] | 0.01 | 3.26 | 0.007
22 | CCCCNc1nc(N)nc2ccn(Cc3c(OC)cccc3OC)c12 [Compound 97] | <0.01 | 0.23 | 0.001
23 | CCCC(C)Nc1nc(N)nc2ccn(Cc3c(OC)cccc3OC)c12 (stereo not drawn) [Compound 98] | <0.01 | 0.22 | 0.001
24 | CCCC[C@@H](CCO)Nc1nc(N)nc2ccn(Cc3c(OC)cccc3OC)c12 [Compound 99] | <0.01 | 0.1 | < 0.001
25 | CCC[C@@H](CO)Nc1nc(N)nc2ccn(Cc3c(OC)cccc3OC)c12 [Compound 100] | <0.01 | 0.04 | < 0.001
26 | CCCC[C@@H](CO)Nc1nc(N)nc2ccn(Cc3c(OC)cccc3OC)c12 [Compound 101] | <0.01 | 0.08 | < 0.001
27 | CCC[C@@H](CCO)Nc1nc(N)nc2ccn(Cc3c(OC)cccc3OC)c12 [Compound 102] | <0.01 | 0.14 | < 0.001
28 | COCCNc1nc(N)nc2ccn(Cc3ccccc3OC)c12 [Compound 103] | 0.032 | >25 | 0.018
29 | CC(Nc1nc(N)nc2ccn(C)c12)c1ccccn1 (stereo not drawn) [Compound 104] | 11.960 | >25 | 1.98
30 | COCCn1ccc2nc(N)nc(NC(C)c3ccccn3)c21 (stereo not drawn) [Compound 105] | 0.827 | >25 | 0.194
31 | COCCNc1nc(N)nc2ccn(Cc3cccc(OC)c3)c12 [Compound 107] | 2.030 | >25 | 2.13
32 | CC(C)c1cc(CNc2nc(N)nc3ccn(Cc4cscn4)c23)no1 [Compound 108] | 0.126 | >25 | 0.07
33 | CCC[C@@H](CCO)Nc1nc(N)nc2ccn(Cc3cccc(OC)c3)c12 [Compound 109] | 0.005 | 7.17 | 0.003
34 | COc1ccccc1Cn1ccc2nc(N)nc(NCc3cc(C)on3)c21 [Compound 110] | 0.002 | >25 | 0.001
